For two sequences, targeting frequency and Kd results are on record in publication PMC4433859 (Journal of immunology (Baltimore, Md. : 1950), 2015).

Assay [1] relates to HIV-specific CD8^+ T-cell responses. The experiment in a line: IFNγ ELISpot with overlapping and optimal peptides. The following applies: IFNγ ELISpot responders among HLA-B*42:01^+ individuals, stratified for lack of HLA-B*07:02/39:10/42:02/81:01 co-expression (n=154). It counts as cell-based, human.
In the next assay the target is HLA-B*42:01 (Homo sapiens, UniProt P01889, D138N/E176V/E187T/K202T/R180D). The experiment in a line: biochemical. It counts as binding.

Where no end group is shown, it is not given here.

For KVVPRRKAKIIKDYGKQM [Int-275], the targeting frequency in assay [1] was found to be 53%.
Regarding IIKDYGKQM [Int-IM9], binding on HLA-B*42:01 was characterised by a dissociation constant (Kd) of 19 nM.
